Source: patent US8575156B2, “Cyclic inhibitors of 11β-hydroxysteroid dehydrogenase 1” (Vitae Pharmaceuticals, Inc., priority 2007, dated 2013)
Read-outs that look alike come from different tables or passages of the source.

Assays:
[1] = target: T1, 11β-HSD1 (Homo sapiens, UniProt P28845); conditions: 0.1 µM
[2] = target: T1, 11β-HSD1; assay: biochemical; conditions: IC50 Range
[3] = Biological Test Example 1, 100 nM compound
[4] = Biological Test Example 1, microsomes from CHO cells overexpressing human 11β-HSD1
[5] = Biological Test Example 1, 100 nM

T1 sequence (P28845 whole entry): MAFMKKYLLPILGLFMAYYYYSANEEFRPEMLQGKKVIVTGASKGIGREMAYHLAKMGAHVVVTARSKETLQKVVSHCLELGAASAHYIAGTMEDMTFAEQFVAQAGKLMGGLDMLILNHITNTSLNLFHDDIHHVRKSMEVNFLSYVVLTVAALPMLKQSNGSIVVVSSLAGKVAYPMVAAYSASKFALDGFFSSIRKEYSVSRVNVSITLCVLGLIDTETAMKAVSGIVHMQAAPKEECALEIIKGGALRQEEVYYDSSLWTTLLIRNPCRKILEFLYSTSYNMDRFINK

Row | Compound | Average % inhibition at 100 nM [1, 3] | IC50 [2, 4] | Average % inhibition at 100 nM [1] | IC50 [2] | Average % inhibition at 100 nM [1, 5]
1 | CC1CC(CCO)(c2ccc(F)cc2)OC(=O)N1[C@@H](C)c1ccc(Br)cc1 (single isomer, unassigned) [EXAMPLE 163 Isomer 2] | 96.9% | < 100 nM |  |  | 
2 | CC1CC(CCO)(c2ccc(F)cc2)OC(=O)N1[C@@H](C)c1ccc(Br)cc1 (single isomer, unassigned) [EXAMPLE 163 Isomer 3] | 11.3% | > 100 nM |  |  | 
3 | C[C@@H](c1ccc(-c2ccc(F)cc2F)cc1)N1CCC(CCCO)(c2cccs2)OC1=O (single isomer, unassigned) [EXAMPLE 171 Isomer 1] | 95.7% | < 100 nM |  |  | 
4 | CC(C)C1(CCCO)CCN([C@@H](C)c2ccc(Cl)cc2)C(=O)O1 (single isomer, unassigned) [EXAMPLE 187 Isomer 1] |  | < 100 nM | 98.7% |  | 
5 | O=C1OC(CCCO)(c2ccccc2)CCN1C1CC1c1ccccc1 (single isomer, unassigned) [EXAMPLE 188 Isomer 1, 6-(3-hydroxypropyl)-6-phenyl-3-(2-phenylcyclopropyl)-1,3-oxazinan-2-one] | 77.0% | < 100 nM |  |  | 
6 | O=C1OC(CCCO)(c2ccccc2)CCN1C1CC1c1ccccc1 (single isomer, unassigned) [EXAMPLE 188 Isomer 2, 6-(3-hydroxypropyl)-6-phenyl-3-(2-phenylcyclopropyl)-1,3-oxazinan-2-one] | 31.7% | > 100 nM |  |  | 
7 | COc1ccc([C@H](C)N2CCC(CCCO)(c3ccc(F)cc3)OC2=O)cc1 (single isomer, unassigned) [EXAMPLE 201 Isomer 1] | 93.2% | < 100 nM |  |  | 
8 | COc1ccc([C@H](C)N2CCC(CCCO)(c3ccc(F)cc3)OC2=O)cc1 (single isomer, unassigned) [EXAMPLE 201 Isomer 2] | 27.0% | > 100 nM |  |  | 
9 | CC(C)(C)OC(=O)N1CCC(N2CCC(CCCO)(c3ccccc3)OC2=O)C1 (single isomer, unassigned) [EXAMPLE 208 Isomer 1] | 76.6% | < 100 nM |  |  | 
10 | CC(C)(C)OC(=O)N1CCC(N2CCC(CCCO)(c3ccccc3)OC2=O)C1 (single isomer, unassigned) [EXAMPLE 208 Isomer 2] | 38.5% | > 100 nM |  |  | 
11 | CC(C)(C)OC(=O)N1CCC(N2CCC(CCCO)(c3ccccc3)OC2=O)C1 (single isomer, unassigned) [EXAMPLE 208 Isomer 3] | 64.6% | < 100 nM |  |  | 
12 | CC(C)(C)OC(=O)N1CCC(N2CCC(CCCO)(c3ccccc3)OC2=O)C1 (single isomer, unassigned) [EXAMPLE 208 Isomer 4] | 29.3% | < 100 nM |  |  | 
13 | CC(C)C1(CC(O)CO)CCN([C@@H](C)c2ccc(-c3ccc(F)cc3F)cc2)C(=O)O1 (single isomer, unassigned) [EXAMPLE 223 Isomer 1] | 94.2% | < 100 nM |  |  | 
14 | CC(C)C1(CC(O)CO)CCN([C@@H](C)c2ccc(-c3ccc(F)cc3F)cc2)C(=O)O1 (single isomer, unassigned) [EXAMPLE 223 Isomer 2] | 97.1% | < 100 nM |  |  | 
15 | CC(C)C1(CC(O)CO)CCN([C@@H](C)c2ccc(-c3ccc(F)cc3F)cc2)C(=O)O1 (single isomer, unassigned) [EXAMPLE 223 Isomer 3] | 27.8% | > 100 nM |  |  | 
16 | CC(C)C1(CC(O)CO)CCN([C@@H](C)c2ccc(-c3ccc(F)cc3F)cc2)C(=O)O1 (single isomer, unassigned) [EXAMPLE 223 Isomer 4] | 52.5% | > 100 nM |  |  | 
17 | C[C@@H](c1ccc(-c2ccc(F)cc2F)cc1)N1CCC(CCO)(c2cccs2)OC1=O (single isomer, unassigned) [EXAMPLE 233 Isomer 1] | 98.9% | < 100 nM |  |  | 
18 | C[C@@H](c1ccc(-c2ccc(F)cc2F)cc1)N1CC[C@](CC(O)CN(C)C)(c2ccc(F)cc2)OC1=O (single isomer, unassigned) [EXAMPLE 273 Isomer 1] | 53.6% | < 100 nM |  |  | 

Row | Compound | Average % inhibition at 100 nM [1, 3] | IC50 [2, 4] | Average % inhibition at 100 nM [1] | IC50 [2] | Average % inhibition at 100 nM [1, 5]
19 | C[C@@H](c1ccc(-c2ccc(F)cc2F)cc1)N1CC[C@](CC(O)CN(C)C)(c2ccc(F)cc2)OC1=O (single isomer, unassigned) [EXAMPLE 273 Isomer 2] | 17.9% | > 100 nM |  |  | 
20 | C[C@@H](c1ccc(-c2ccc(F)cc2F)cc1)N1CC[C@](CC(O)CNC(N)=O)(c2ccc(F)cc2)OC1=O (single isomer, unassigned) [EXAMPLE 276 Isomer 1] | 83.1% | < 100 nM |  |  | 
21 | C[C@@H](c1ccc(-c2ccc(F)cc2F)cc1)N1CC[C@](CC(O)CNC(N)=O)(c2ccc(F)cc2)OC1=O (single isomer, unassigned) [EXAMPLE 276 Isomer 2] | 35.4% | > 100 nM |  |  | 
22 | C[C@@H](c1ccc(-c2ccc(F)cc2)cc1)N1CC[C@](CC(O)CNS(C)(=O)=O)(c2ccc(F)cc2)OC1=O (single isomer, unassigned) [EXAMPLE 277 Isomer 1] |  |  | 91.1% | < 100 nM | 
23 | C[C@@H](c1ccc(-c2ccc(F)cc2)cc1)N1CC[C@](CC(O)CN(C)S(C)(=O)=O)(c2ccc(F)cc2)OC1=O (single isomer, unassigned) [EXAMPLE 278 Isomer 1] | 86.6% | < 100 nM |  |  | 
24 | COc1ccc([C@H](C)N2CCC(CC(O)CO)(c3ccccc3)OC2=O)cc1 (single isomer, unassigned) [EXAMPLE 286 Isomer 1] | 94.1% | < 100 nM |  |  | 
25 | COc1ccc([C@H](C)N2CCC(CC(O)CO)(c3ccccc3)OC2=O)cc1 (single isomer, unassigned) [EXAMPLE 286 Isomer 2] | 94.5% | < 100 nM |  |  | 
26 | COc1ccc([C@H](C)N2CCC(CC(O)CO)(c3ccccc3)OC2=O)cc1 (single isomer, unassigned) [EXAMPLE 286 Isomer 3] | 70.5% | < 100 nM |  |  | 
27 | COc1ccc([C@H](C)N2CCC(CC(O)CO)(c3ccccc3)OC2=O)cc1 (single isomer, unassigned) [EXAMPLE 286 Isomer 4] | 29.3% | > 100 nM |  |  | 
28 | COc1ccc([C@H](C)N2CCC(CCCO)(C(C)C)OC2=O)cc1 (single isomer, unassigned) [EXAMPLE 332 Isomer 1] |  | < 100 nM |  |  | 97.8%
29 | COc1ccc([C@H](C)N2CCC(CCCO)(C(C)C)OC2=O)cc1 (single isomer, unassigned) [EXAMPLE 332 Isomer 2] |  | > 100 nM |  |  | 32.2%
30 | COc1ccc([C@H](C)N2CCC(CCC(N)=O)(C(C)C)OC2=O)cc1 (single isomer, unassigned) [EXAMPLE 333 Isomer 1] |  | < 100 nM |  |  | 96.2%
31 | COc1ccc([C@H](C)N2CCC(CCC(N)=O)(C(C)C)OC2=O)cc1 (single isomer, unassigned) [EXAMPLE 333 Isomer 2] |  | > 100 nM |  |  | 9.1%
32 | CC(C)C1(CCC(N)=O)CCN([C@@H](C)c2ccc(Cl)cc2)C(=O)O1 (single isomer, unassigned) [EXAMPLE 334 Isomer 1] |  | < 100 nM |  |  | 96.6%
33 | CC(C)C1(CCC(N)=O)CCN([C@@H](C)c2ccc(Cl)cc2)C(=O)O1 (single isomer, unassigned) [EXAMPLE 334 Isomer 2] |  | > 100 nM |  |  | 31.9%
34 | C[C@@H](c1ccc(Br)cc1)N1CCC(CCCO)(C(C)(C)C)OC1=O (single isomer, unassigned) [EXAMPLE 335 Isomer 1] |  | < 100 nM |  |  | 48.2%
35 | C[C@@H](c1ccc(-c2ccc(F)cc2F)cc1)N1CCC(CCO)(C(C)(C)C)OC1=O (single isomer, unassigned) [EXAMPLE 336 Isomer 1] |  | < 100 nM |  |  | 50.8%
36 | C[C@@H](c1ccc(Br)cc1)N1CCC(CCO)(c2ccc(F)cc2F)OC1=O (single isomer, unassigned) [EXAMPLE 365 Isomer 1] |  | < 100 nM |  |  | 97.5%
